Experimental data published in patent US20230398130A1, “METHODS AND COMPOSITIONS FOR DIFFERENTIATING STEM CELLS” (Massachusetts Institute of Technology, priority 2020, published 2023).

Legend:
[1] = tested on: ISC-enriched organoids; assay: Primary screen, 384-well 2.5-D organoid differentiation (ENR+CD, 6 days): basal lysozyme secretion (LYZ.NS); format: cell-based, murine; settings: for Dose.FC.LYZ.NS (log 2 fold change, basal lysozyme secretion): vs plate median
Excerpt: (§1) High-throughput screening.

[2] = tested on: ISC-enriched organoids; assay: Primary screen, 384-well 2.5-D organoid differentiation (ENR+CD, 6 days): carbachol-induced lysozyme secretion (LYZ.S); format: cell-based, murine; settings: vs plate median
Excerpt: as §1

[3] = tested on: ISC-enriched organoids; assay: Primary screen, 384-well 2.5-D organoid differentiation (ENR+CD, 6 days, Target Selective Inhibitor Library, vs whole-plate median): ATP (CellTiter-Glo 3D, CTG); settings: for Dose.FC.CTG (log 2 fold change, ATP): vs plate median

Row | Structure (SMILES) | Z.LYZ.NS (standard z score) ([1]; dose 0.08 uM) | Dose.FC.LYZ.NS (log 2 fold change, basal lysozyme secretion) ([1]; dose 0.08 uM) | Z.LYZ.NS (standard z score) ([1]; dose 0.40 uM) | Dose.FC.LYZ.NS (log 2 fold change, basal lysozyme secretion) ([1]; dose 0.40 uM) | Z.LYZ.NS (standard z score) ([1]; dose 2.00 uM) | Dose.FC.LYZ.NS (log 2 fold change, basal lysozyme secretion) ([1]; dose 2.00 uM) | Z.LYZ.NS (standard z score) ([1]; dose 10.00 uM) | Dose.FC.LYZ.NS (log 2 fold change, basal lysozyme secretion) ([1]; dose 10.00 uM) | Dose.FC.LYZ.S (log 2 fold change, carbachol-induced lysozyme secretion) ([2]; dose 0.08 uM) | Dose.FC.LYZ.S (log 2 fold change, carbachol-induced lysozyme secretion) ([2]; dose 0.40 uM) | Dose.FC.LYZ.S (log 2 fold change, carbachol-induced lysozyme secretion) ([2]; dose 2.00 uM) | Dose.FC.LYZ.S (log 2 fold change, carbachol-induced lysozyme secretion) ([2]; dose 10.00 uM) | Z.CTG (standard z score) ([3]; dose 0.08 uM) | Dose.FC.CTG (log 2 fold change, ATP) ([3]; dose 0.08 uM) | Z.CTG (standard z score) ([3]; dose 0.40 uM) | Dose.FC.CTG (log 2 fold change, ATP) ([3]; dose 0.40 uM) | Z.CTG (standard z score) ([3]; dose 2.00 uM) | Dose.FC.CTG (log 2 fold change, ATP) ([3]; dose 2.00 uM) | Z.CTG (standard z score) ([3]; dose 10.00 uM) | Dose.FC.CTG (log 2 fold change, ATP) ([3]; dose 10.00 uM)
1 | O=C(NCc1ccccc1)c1csc(Nc2ccncn2)n1 [Thiazovivin] | 0.780 | 0.090 | 0.611 | 0.070 | 0.205 | 0.024 | −0.605 | −0.069 | 0.142 | 0.060 | 0.064 | 0.037 | 0.337 | 0.141 | 0.271 | 0.113 | 0.746 | 0.312 | 0.451 | 0.189
2 | COc1ccc2cc(-c3nc(-c4ccc([S+](C)[O-])cc4)[nH]c3-c3ccncc3)ccc2c1 (stereo not drawn) [Tie2 kinase inhibitor] | 0.080 | 0.009 | 0.019 | 0.002 | 1.577 | 0.181 | −0.274 | −0.031 | 0.018 | −0.021 | 0.024 | −0.097 | 0.012 | 0.005 | 0.177 | 0.074 | −0.750 | −0.314 | −1.311 | −0.549
3 | C[C@@H]1CCN(C(=O)CC#N)C[C@@H]1N(C)c1ncnc2[nH]ccc12 [Tofacitinib (CP-690550, Tasocitinib)] | −0.146 | −0.017 | −0.132 | −0.015 | −0.061 | −0.007 | −0.036 | −0.004 | 0.022 | 0.010 | 0.025 | 0.010 | 0.312 | 0.130 | 0.595 | 0.249 | 0.278 | 0.117 | 0.563 | 0.236
4 | CC(C)C[C@@H](C(=O)N[C@H](C(=O)OC1CCCC1)c1ccccc1)[C@H](O)C(=O)NO [Tosedostat (CHR2797)] | −0.022 | −0.002 | −0.925 | −0.106 | −0.432 | −0.050 | −1.499 | −0.172 | −0.027 | −0.134 | −0.128 | −0.276 | −0.232 | −0.097 | 0.123 | 0.051 | −0.480 | −0.201 | −1.117 | −0.468
5 | CC(/C=C/C(=O)NO)=C\[C@@H](C)C(=O)c1ccc(N(C)C)cc1 [Trichostatin A (TSA)] | −0.554 | −0.064 | −1.697 | −0.195 | −1.334 | −0.153 | −1.298 | −0.149 | −0.124 | −0.254 | −0.210 | −0.202 | 0.457 | 0.191 | −1.913 | −0.801 | −2.159 | −0.904 | −1.974 | −0.826
6 | O=C(O[C@H]1C[C@H]2CC[C@@H](C1)[N+]21CCCC1)C(O)(c1ccccc1)c1ccccc1 [Trospium chloride] | 1.470 | 0.169 | 1.895 | 0.218 | −0.017 | −0.002 | 0.885 | 0.102 | 0.119 | 0.117 | −0.008 | 0.084 | 0.199 | 0.083 | −0.073 | −0.031 | 0.477 | 0.200 | 0.354 | 0.148
7 | CC(C)(C)c1cc(/C=C(\C#N)C(N)=S)cc(C(C)(C)C)c1O [Tyrphostin AG 879] | 0.088 | 0.010 | −0.680 | −0.078 | −0.698 | −0.080 | −0.960 | −0.110 | −0.083 | −0.084 | −0.051 | −0.123 | −0.828 | −0.347 | −0.569 | −0.238 | −0.554 | −0.232 | −0.879 | −0.368
8 | CCO.N#CC(=C(/N)Sc1ccccc1N)/C(C#N)=C(\N)Sc1ccccc1N [U0126-EtOH] | 0.859 | 0.099 | 0.163 | 0.019 | −0.389 | −0.045 | −1.021 | −0.117 | 0.114 | 0.075 | −0.071 | −0.165 | −0.835 | −0.350 | −1.227 | −0.514 | −1.138 | −0.476 | −1.887 | −0.790
9 | O=C(c1cncc(Br)c1)N1CCC(N2CCCC2)CC1 [UNC669] | 0.578 | 0.066 | −0.048 | −0.006 | 0.606 | 0.070 | 0.249 | 0.029 | 0.047 | −0.029 | 0.025 | 0.002 | −0.226 | −0.095 | 0.228 | 0.096 | −0.561 | −0.235 | 0.174 | 0.073
